Patent publication US20130331412A9, “Pharmaceutical Compositions and Administrations Thereof” (VERTEX PHARMACEUTICALS INCORPORATED, priority 2010, published 2013)

Columns and labels:
Assay in all cases: FRT cell Ussing chamber chloride transport assay
Assay type in all cases: cell-based
human CFTR mutant G970R = target: T1, human CFTR mutant G970R (Homo sapiens, UniProt P13569, G970R); details: FRT cells expressing G970R CFTR
T1 construct: expressed in transfected cells; host or cells: Fisher rat thyroid (FRT) FlpIn cells, pcDNA5/FRT
Excerpt: (§1) DNA cloning: Wild-type CFTR coding region was inserted into pcDNA5/FRT (Invitrogen, San Diego, Calif.) between EcoRV and ApaI.
(§2) Single CFTR gene mutations were introduced into the wild-type CFTR coding sequence by using QuickChange XL site-directed mutagenesis kit (Stratagene, Cambridge, UK). The CFTR coding region as well as its promoter sequence and 3′ untranslated sequence was fully sequenced to confirm the mutagenesis reaction.
(§3) The CFTR gene was stably expressed in Fisher rat thyroid (FRT) cells through FlpIn system. The FRT-FlpIn host cell line was generated by stably transfecting FRT cells with pFRT/lacZeo. The single integration of a FRT site was confirmed by Southern blot. After the mutant CFTR DNA was transfected into the FRT-FlpIn host cell line, the cells were incubate at 37° C. in Coon's modified Ham's F12 containing 10% FBS, 1% Pen/Strep, and 36 ml of Na− Bicarbonate for up to 8 passages under hygromycin selection (200 ug/ml).
(§4) All cells were grown on Costar® Snapwell™ cell culture inserts at maintained at 37° C. prior to recording. The cell culture inserts were mounted into an Ussing chamber (VCC MC8; Physiologic Instruments, Inc., San Diego, Calif.) to record ISC in the voltage-clamp mode (Vhold=0 mV). For FRT cells, the basolateral membrane was permeabilized with 360 μg/ml Nystatin and a basolateral to apical Cl− gradient was established. The basolateral bath solution contained (in mM); 135 NaCl, 1.2 CaCl2, 1.2 MgCl2, 2.4 K2HPO4, 0.6 KHPO4, 10 N-2-hydroxyethylpiperazine-N′-2-ethanesulfonic acid (HEPES), and 10 dextrose (titrated to pH 7.4 with NaOH). The apical NaCl was replaced by equimolar Na+ gluconate (titrated to pH 7.4 with NaOH). For HBE cells, the ISC was measured in the presence of a basolateral to apical Cl− gradient. The normal Cl− solution contained (in mM) 145 NaCl, 3.3 K2HPO4, 1.2 MgCl2, 1.2 CaCl2, 10 Glucose, 10 HEPES (pH adjusted to 7.35 with NaOH) and the low Cl− solution contained (in mM) 145 NaGluconate, 1.2 MgCl2, 1.2 CaCl2, 10 glucose, 10 HEPES (pH adjusted to 7.35 with NaOH). All recordings were digitally acquired using a Acquire and Analyze software (version 2; Physiologic Instruments, Inc. San Diego, Calif.).
(§5) The 10 μM forskolin stimulated response in FRT cell expressing different mutant CFTR forms or in HBE cells isolated from CF patients was normalized to the 10 μM forskolin-stimulated response in FRT cells expressing wild-type CFTR or in HBE isolated from non-CF individuals and expressed as % wild-type CFTR. In HBE, amiloride was added prior to forskolin application to block the epithelial Na+ channel.

human CFTR mutant L206W = target: T2, human CFTR mutant L206W (Homo sapiens, UniProt P13569, L206W); details: FRT cells expressing L206W CFTR
T2 construct: expressed in transfected cells; host or cells: Fisher rat thyroid (FRT) FlpIn cells, pcDNA5/FRT
Excerpt: as §1, §2, §3, §4, §5

human CFTR mutant P67L = target: T3, human CFTR mutant P67L (Homo sapiens, UniProt P13569, P67L); details: FRT cells expressing P67L CFTR
T3 construct: expressed in transfected cells; host or cells: Fisher rat thyroid (FRT) FlpIn cells, pcDNA5/FRT
Excerpt: as §1, §2, §3, §4, §5

human CFTR mutant R1070W = target: T4, human CFTR mutant R1070W (Homo sapiens, UniProt P13569, R1070W); details: FRT cells expressing R1070W CFTR
T4 construct: expressed in transfected cells; host or cells: Fisher rat thyroid (FRT) FlpIn cells, pcDNA5/FRT
Excerpt: as §1, §2, §3, §4, §5

human CFTR mutant R117C = target: T5, human CFTR mutant R117C (Homo sapiens, UniProt P13569, R117C); details: FRT cells expressing R117C CFTR
T5 construct: expressed in transfected cells; host or cells: Fisher rat thyroid (FRT) FlpIn cells, pcDNA5/FRT
Excerpt: as §1, §2, §3, §4, §5

human CFTR mutant R347H = target: T6, human CFTR mutant R347H (Homo sapiens, UniProt P13569, R347H); details: FRT cells expressing R347H CFTR
T6 construct: expressed in transfected cells; host or cells: Fisher rat thyroid (FRT) FlpIn cells, pcDNA5/FRT
Excerpt: as §1, §2, §3, §4, §5

human CFTR mutant R352Q = target: T7, human CFTR mutant R352Q (Homo sapiens, UniProt P13569, R352Q); details: FRT cells expressing R352Q CFTR
T7 construct: expressed in transfected cells; host or cells: Fisher rat thyroid (FRT) FlpIn cells, pcDNA5/FRT
Excerpt: as §1, §2, §3, §4, §5

human CFTR mutant S1235R = target: T8, human CFTR mutant S1235R (Homo sapiens, UniProt P13569, S1235R); details: FRT cells expressing S1235R CFTR
T8 construct: expressed in transfected cells; host or cells: Fisher rat thyroid (FRT) FlpIn cells, pcDNA5/FRT
Excerpt: as §1, §2, §3, §4, §5

human CFTR mutant S1251N = target: T9, human CFTR mutant S1251N (Homo sapiens, UniProt P13569, S1251N); details: FRT cells expressing S1251N CFTR
T9 construct: expressed in transfected cells; host or cells: Fisher rat thyroid (FRT) FlpIn cells, pcDNA5/FRT
Excerpt: as §1, §2, §3, §4, §5

human CFTR mutant S1255P = target: T10, human CFTR mutant S1255P (Homo sapiens, UniProt P13569, S1255P); details: FRT cells expressing S1255P CFTR
T10 construct: expressed in transfected cells; host or cells: Fisher rat thyroid (FRT) FlpIn cells, pcDNA5/FRT
Excerpt: as §1, §2, §3, §4, §5

human CFTR mutant S549N = target: T11, human CFTR mutant S549N (Homo sapiens, UniProt P13569, S549N); details: FRT cells expressing S549N CFTR
T11 construct: expressed in transfected cells; host or cells: Fisher rat thyroid (FRT) FlpIn cells, pcDNA5/FRT
Excerpt: as §1, §2, §3, §4, §5

human CFTR mutant S549R = target: T12, human CFTR mutant S549R (Homo sapiens, UniProt P13569, S549R); details: FRT cells expressing S549R CFTR
T12 construct: expressed in transfected cells; host or cells: Fisher rat thyroid (FRT) FlpIn cells, pcDNA5/FRT
Excerpt: as §1, §2, §3, §4, §5

human CFTR mutant S945L = target: T13, human CFTR mutant S945L (Homo sapiens, UniProt P13569, S945L); details: FRT cells expressing S945L CFTR
T13 construct: expressed in transfected cells; host or cells: Fisher rat thyroid (FRT) FlpIn cells, pcDNA5/FRT
Excerpt: as §1, §2, §3, §4, §5

T4 sequence (P13569 whole entry R1070W): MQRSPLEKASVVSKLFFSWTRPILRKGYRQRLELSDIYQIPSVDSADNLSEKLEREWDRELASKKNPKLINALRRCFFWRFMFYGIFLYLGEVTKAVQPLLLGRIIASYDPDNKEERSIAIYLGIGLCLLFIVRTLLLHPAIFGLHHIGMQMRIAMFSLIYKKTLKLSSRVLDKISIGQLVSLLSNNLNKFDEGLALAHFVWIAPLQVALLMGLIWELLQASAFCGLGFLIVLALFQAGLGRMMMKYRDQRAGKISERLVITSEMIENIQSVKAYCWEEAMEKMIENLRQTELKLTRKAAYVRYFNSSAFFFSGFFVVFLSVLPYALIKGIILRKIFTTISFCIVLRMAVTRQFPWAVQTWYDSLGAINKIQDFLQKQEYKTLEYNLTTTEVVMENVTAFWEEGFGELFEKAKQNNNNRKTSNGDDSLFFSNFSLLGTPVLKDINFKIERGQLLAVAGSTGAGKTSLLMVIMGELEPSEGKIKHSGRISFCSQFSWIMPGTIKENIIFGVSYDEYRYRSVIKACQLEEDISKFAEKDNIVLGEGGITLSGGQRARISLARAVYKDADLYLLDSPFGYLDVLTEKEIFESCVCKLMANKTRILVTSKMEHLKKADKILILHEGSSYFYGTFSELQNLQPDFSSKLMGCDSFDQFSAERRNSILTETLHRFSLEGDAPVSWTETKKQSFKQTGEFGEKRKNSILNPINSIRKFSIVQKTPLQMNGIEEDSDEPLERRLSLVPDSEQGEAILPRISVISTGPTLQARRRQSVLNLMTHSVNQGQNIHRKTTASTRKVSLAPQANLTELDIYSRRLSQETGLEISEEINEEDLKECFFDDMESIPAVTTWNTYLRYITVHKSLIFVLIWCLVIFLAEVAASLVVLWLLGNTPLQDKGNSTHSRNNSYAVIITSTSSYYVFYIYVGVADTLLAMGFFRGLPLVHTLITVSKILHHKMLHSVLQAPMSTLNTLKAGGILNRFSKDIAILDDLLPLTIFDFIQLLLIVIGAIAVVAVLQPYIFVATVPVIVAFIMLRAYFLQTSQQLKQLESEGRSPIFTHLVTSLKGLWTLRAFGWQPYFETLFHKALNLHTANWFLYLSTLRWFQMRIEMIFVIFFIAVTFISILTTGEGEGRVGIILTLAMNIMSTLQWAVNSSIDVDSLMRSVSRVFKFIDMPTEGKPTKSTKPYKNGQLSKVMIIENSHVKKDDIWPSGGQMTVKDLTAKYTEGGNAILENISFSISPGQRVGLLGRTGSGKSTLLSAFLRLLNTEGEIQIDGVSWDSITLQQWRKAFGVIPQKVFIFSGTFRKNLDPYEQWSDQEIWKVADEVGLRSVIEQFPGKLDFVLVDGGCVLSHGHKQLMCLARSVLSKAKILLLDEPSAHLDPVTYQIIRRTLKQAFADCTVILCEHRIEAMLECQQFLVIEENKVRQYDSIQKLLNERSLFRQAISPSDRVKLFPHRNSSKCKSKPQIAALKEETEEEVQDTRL
T11 sequence (P13569 whole entry S549N): as the sequence (P13569 whole entry R1070W) above, with S549N, W1070R counted along it
T8 sequence (P13569 whole entry S1235R): as the sequence (P13569 whole entry R1070W) above, with W1070R, S1235R counted along it
T6 sequence (P13569 whole entry R347H): as the sequence (P13569 whole entry R1070W) above, with R347H, W1070R counted along it
T1 sequence (P13569 whole entry G970R): as the sequence (P13569 whole entry R1070W) above, with G970R, W1070R counted along it
T2 sequence (P13569 whole entry L206W): as the sequence (P13569 whole entry R1070W) above, with L206W, W1070R counted along it
T3 sequence (P13569 whole entry P67L): as the sequence (P13569 whole entry R1070W) above, with P67L, W1070R counted along it
T13 sequence (P13569 whole entry S945L): as the sequence (P13569 whole entry R1070W) above, with S945L, W1070R counted along it
T12 sequence (P13569 whole entry S549R): as the sequence (P13569 whole entry R1070W) above, with S549R, W1070R counted along it
T10 sequence (P13569 whole entry S1255P): as the sequence (P13569 whole entry R1070W) above, with W1070R, S1255P counted along it
T7 sequence (P13569 whole entry R352Q): as the sequence (P13569 whole entry R1070W) above, with R352Q, W1070R counted along it
T9 sequence (P13569 whole entry S1251N): as the sequence (P13569 whole entry R1070W) above, with W1070R, S1251N counted along it
T5 sequence (P13569 whole entry R117C): as the sequence (P13569 whole entry R1070W) above, with R117C, W1070R counted along it

- increase in chloride transport, relative to baseline chloride transport (human CFTR mutant G970R): greater than 10 fold
- increase in chloride transport, relative to baseline chloride transport (human CFTR mutant L206W): greater than or equal to 10%
- increase in chloride transport, relative to baseline chloride transport (human CFTR mutant P67L): greater than or equal to 10%
- increase in chloride transport, relative to baseline chloride transport (human CFTR mutant R1070W): greater than or equal to 10%
- increase in chloride transport, relative to baseline chloride transport (human CFTR mutant R117C): greater than or equal to 10%
- increase in chloride transport, relative to baseline chloride transport (human CFTR mutant R347H): greater than or equal to 10%
- increase in chloride transport, relative to baseline chloride transport (human CFTR mutant R352Q): greater than or equal to 10%
- increase in chloride transport, relative to baseline chloride transport (human CFTR mutant S1235R): greater than or equal to 10%
- increase in chloride transport, relative to baseline chloride transport (human CFTR mutant S1251N): greater than 10 fold
- increase in chloride transport, relative to baseline chloride transport (human CFTR mutant S1255P): greater than 10 fold
- increase in chloride transport, relative to baseline chloride transport (human CFTR mutant S549N): greater than 10 fold
- increase in chloride transport, relative to baseline chloride transport (human CFTR mutant S549R): greater than 10 fold
- increase in chloride transport, relative to baseline chloride transport (human CFTR mutant S945L): greater than or equal to 10%
Compound: CC(C)(C)c1cc(C(C)(C)C)c(NC(=O)c2c[nH]c3ccccc3c2=O)cc1O [Compound 1, N-[2,4-bis(1,1-dimethylethyl)-5-hydroxyphenyl]-1,4-dihydro-4-oxoquinoline-3-carboxamide]
